Values joined by “and” are separate entries in the source; they are usually repeats but may differ in a detail not shown here. Equal values may be shown once.
How the values were obtained:
[1] = biological target: T1, GST–[T233E]SPAK kinase (Homo sapiens, UniProt Q9UEW8, T231E); experiment: SPAK kinase assay with CATCHtide and IC50 determination; type: biochemical; conditions: for ZT-1a vs SPAK+MO25, kinase activity / ZT-1a vs SPAK, kinase activity: Fig S7b; for ZT-1a vs SPAK, kinase activity: SPAK alone
T1 construct: made in house; host or cells: E. coli
Description: II. Experimental procedures
1. Reagents and General methods
Tissue culture reagents were from Life Technologies. P81 phosphocellulose paper was from Whatman […]
and [γ-32P]-ATP was from Perkin Elmer. […] Protein G […]
sepharose was from Amersham. DNA constructs used for transfection were purified from Escherichia coli DH5α using Qiagen or Invitrogen plasmid Maxi kits according to the manufacturer's protocol. All DNA constructs were verified by DNA sequencing.
2. Plasmids, protein expression and purification
DNA clones were from the Division of Signal Transduction Therapy (University of Dundee). The SPAK proteins were expressed in E. Coli and purified as described previously 1.
3. SPAK kinase assays and IC50 determination
SPAK kinase assays employed CATCHtide (cation chloride co-transporter peptide substrate). Peptide kinase assays, performed in triplicate, were set up in a total volume of 50 μl containing 0.5 μg GST– […]
cpm/pmol) and the indicated concentrations of inhibitor dissolved in DMSO. After incubation for 30 min at 30°C, reactions were terminated by spotting 40 μl of the reaction mix onto P81 phosphocellulose paper and immersion in 50 mM phosphoric acid. The papers were washed extensively and incorporation of [γ-32P]ATP into CATCHtide was quantified by Cerenkov counting.
IC50 values were calculated with GraphPad Prism using non-linear regression analysis.
4. Fluorescence polarization […]
concentrations between 0.00001 to 1 mM. Data points are the means of three determinations, with error […]
A Supplemental Fig. 7 Effects of increasing concentrations of ZT-1a on SPAK activity in the absence […]
the absence or presence of five-fold molar excess of wild-type MO25α. b Kinetic data determined for B ZT-1a in the absence or presence of five-fold molar excess of wild-type MO25α. Data are means of […]
presence of wild-type MO25α.

[2] = system: NKCC1; experiment: 86Rb+ uptake assay for NKCC1 activity in HEK-293 cells; type: cell-based; design: key to 86Rb+ uptake: 86Rb+ uptake in CPM per mg protein; conditions: for 86Rb+ uptake: replicates
Experimental: Thirty-six hours post transfection, cells were exposed for 30 min to either control isotonic conditions or hypotonic low [Cl^−] conditions (to activate the SPAK/OSR1 pathway), and then treated for an additional 30 min in the same conditions with the indicated ZT-1a concentrations in the presence of 1 mM ouabain and 0.1 mM bumetanide. Ten-minute ^86Rb^+ uptake values were quantified by scintillation counting, normalized per mg protein for each condition, and plotted for both isotonic and hypotonic conditions. ***p < 0.001; **p < 0.01; *p < 0.05; ns—nonsignificant [by one-way ANOVA with post hoc testing (n = 6, error bars represent the mean ± SEM)]. b ^86Rb^+ uptake assays in the presence of ZT-1a measure transport activity of NKCC1. […] Thirty-six hours post transfection, cells were exposed for 30 min to either control isotonic conditions or hypotonic low [Cl^−] conditions (to activate the SPAK/OSR1 pathway), and then treated in the same conditions for an additional 30 min with 10 µM ZT-1a or 0.1 mM bumetanide (Bum) in the presence of 1 mM ouabain (Na^+/K^+-ATPase inhibitor). ^86Rb^+ uptake was allowed to proceed for 10 min and was then quantified by scintillation counting. ^86Rb^+ uptake CPMs were normalized per mg protein and plotted for both isotonic and hypotonic conditions. […] Thirty-six hours post transfection, cells were exposed for 30 min to either control isotonic conditions or hypotonic low [Cl^−] conditions (to activate the SPAK/OSR1 pathway), and then treated for an additional 30 min in the same conditions with the indicated ZT-1a concentrations in the presence of 1 mM ouabain. Ten-minute ^86Rb^+ uptake values were quantified by scintillation counting, normalized per mg protein for each condition, and plotted for both isotonic and hypotonic conditions. ***p < 0.001; **p < 0.01; *p < 0.05; ns—nonsignificant [by one-way ANOVA with post hoc testing (n = 6, error bars represent the mean ± SEM)].
This stimulating medium was then removed and replaced with isotonic medium containing inhibitors plus 2 µCi/ml ^86Rb^+. After incubation for 10 min at 37 °C, cells were rapidly washed three times with the respective ice-cold nonradioactive medium. Washed cells were lysed in 300 µl of ice-cold lysis buffer and ^86Rb^+ uptake was quantitated by liquid scintillation counting (PerkinElmer).

[3] = system: CSF secretion by choroid plexus epithelium; experiment: Rate of CSF production after IVH with intracerebroventricular drug; type: in vivo; conditions: rat; ZT-1a treatment for 48 h at 10 µM

Cc1cc(C(C#N)c2ccc(Cl)cc2)c(Cl)cc1NC(=O)c1cc(Cl)ccc1O (stereo not shown) [ZT-1a, 5-chloro-N-(5-chloro-4-((4-chlorophenyl)(cyano)methyl)-2-methylphenyl)-2-hydroxybenzamide]
ZT-1a vs SPAK+MO25, kinase activity ([1]; ZT-1a 0.0001 uM): 393641 C.P.M and 402385 C.P.M and 384718 C.P.M | ZT-1a vs SPAK+MO25, kinase activity ([1]; ZT-1a 0.001 uM): 392612 C.P.M and 367664 C.P.M and 337143 C.P.M | ZT-1a vs SPAK+MO25, kinase activity ([1]; ZT-1a 0.003 uM): 363431 C.P.M and 388438 C.P.M and 371694 C.P.M | ZT-1a vs SPAK+MO25, kinase activity ([1]; ZT-1a 0.01 uM): 359080 C.P.M and 382836 C.P.M and 362174 C.P.M | ZT-1a vs SPAK+MO25, kinase activity ([1]; ZT-1a 0.03 uM): 408327 C.P.M and 384102 C.P.M and 373519 C.P.M | ZT-1a vs SPAK+MO25, kinase activity ([1]; ZT-1a 0.1 uM): 381538 C.P.M and 398205 C.P.M and 371203 C.P.M | ZT-1a vs SPAK+MO25, kinase activity ([1]; ZT-1a 0.3 uM): 371591 C.P.M and 394205 C.P.M and 361553 C.P.M | ZT-1a vs SPAK+MO25, kinase activity ([1]; ZT-1a 1 uM): 365869 C.P.M and 359432 C.P.M and 371032 C.P.M | ZT-1a vs SPAK+MO25, kinase activity ([1]; ZT-1a 3 uM): 354403 C.P.M and 355755 C.P.M and 331937 C.P.M | ZT-1a vs SPAK+MO25, kinase activity ([1]; ZT-1a 10 uM): 325521 C.P.M and 299490 C.P.M and 282196 C.P.M | ZT-1a vs SPAK+MO25, kinase activity ([1]; ZT-1a 100 uM): 119789 C.P.M and 97606 C.P.M and 83035 C.P.M | ZT-1a vs SPAK+MO25, kinase activity ([1]; ZT-1a 1000 uM): 31455 C.P.M and 51772 C.P.M and 49172 C.P.M | ZT-1a vs SPAK, kinase activity ([1]; ZT-1a 1e-5 uM): 48785 C.P.M and 47183 C.P.M and 49610 C.P.M | ZT-1a vs SPAK, kinase activity ([1]; ZT-1a 0.0001 uM): 46475 C.P.M and 45108 C.P.M and 47685 C.P.M | ZT-1a vs SPAK, kinase activity ([1]; ZT-1a 0.001 uM): 47080 C.P.M and 46113 C.P.M and 46420 C.P.M | ZT-1a vs SPAK, kinase activity ([1]; ZT-1a 0.003 uM): 44660 C.P.M and 45821 C.P.M and 45595 C.P.M | ZT-1a vs SPAK, kinase activity ([1]; ZT-1a 0.01 uM): 45890 C.P.M and 44094 C.P.M and 44440 C.P.M | ZT-1a vs SPAK, kinase activity ([1]; ZT-1a 0.03 uM): 44825 C.P.M and 43187 C.P.M and 44890 C.P.M | ZT-1a vs SPAK, kinase activity ([1]; ZT-1a 0.1 uM): 44275 C.P.M and 42127 C.P.M and 44780 C.P.M | ZT-1a vs SPAK, kinase activity ([1]; ZT-1a 0.3 uM): 44230 C.P.M and 41993 C.P.M and 43780 C.P.M | ZT-1a vs SPAK, kinase activity ([1]; ZT-1a 1 uM): 43840 C.P.M and 42097 C.P.M and 44510 C.P.M | ZT-1a vs SPAK, kinase activity ([1]; ZT-1a 3 uM): 41230 C.P.M and 39714 C.P.M and 40580 C.P.M | ZT-1a vs SPAK, kinase activity ([1]; ZT-1a 10 uM): 29580 C.P.M and 31008 C.P.M and 33855 C.P.M | ZT-1a vs SPAK, kinase activity ([1]; ZT-1a 100 uM): 14995 C.P.M and 17307 C.P.M and 16430 C.P.M | ZT-1a vs SPAK, kinase activity ([1]; ZT-1a 1000 uM): 5830 C.P.M and 7520 C.P.M and 9285 C.P.M | IC50 ([1]; absence of wild-type MO25α): 40.5 µM | IC50 ([1]; presence of five-fold molar excess of wild-type MO25α): 41.3 µM | 86Rb+ uptake ([2]; Fig 3b right, NKCC1, ZT-1a 1 uM, Hypotonic low Cl-): 31312.2 and 30912.6 and 28110.4 and 29118.3 and 28103.5 and 29176.8 | 86Rb+ uptake ([2]; Fig 3b right, NKCC1, ZT-1a 1 uM, Isotonic control): 5076.2 and 4867.3 and 5812.7 and 4239.7 and 5129.6 and 5519.2 | 86Rb+ uptake ([2]; Fig 3b right, NKCC1, ZT-1a 3 uM, Hypotonic low Cl-): 14078.7 and 13156.2 and 15002.4 and 14182.5 and 14354.3 and 14621.6 | 86Rb+ uptake ([2]; Fig 3b right, NKCC1, ZT-1a 3 uM, Isotonic control): 3812.1 and 3286.7 and 4513.3 and 4013.5 and 3012.8 and 3586.3 | 86Rb+ uptake ([2]; Fig 3b right, NKCC1, ZT-1a 10 uM, Hypotonic low Cl-): 3712.6 and 5014.2 and 4381.3 and 3518.2 and 4604.5 and 3837.1 | 86Rb+ uptake ([2]; Fig 3b right, NKCC1, ZT-1a 10 uM, Isotonic control): 1476.7 and 1378.3 and 1409.2 and 1215.2 and 1522.8 and 1368.4 | 86Rb+ uptake ([2]; Fig 3b, NKCC1 + 1a (10 µM), Hypotonic low Cl-): 7709.2 and 9015.3 and 7102.3 and 8791.5 and 8682.5 and 8108.1 | 86Rb+ uptake ([2]; Fig 3b, NKCC1 + 1a (10 µM), Isotonic control): 1446.7 and 1247.2 and 1369.6 and 1195.7 and 1501.2 and 1382.8 | NKCC1-mediated K+ influx ([2]; ZT-1a at concentration > 1 µM, isotonic or hypotonic low Cl−): significantly inhibited | decrease of post-IVH CSF hypersecretion [3]: ~ 2.3 fold

Reference: article PMC6946680, “Modulation of brain cation-Cl^− cotransport via the SPAK kinase inhibitor ZT-1a” (Nature Communications, 2020)
